According to patent US20250186403A1 (ARIZONA BOARD OF REGENTS ON BEHALF OF THE UNIVERSITY OF …, priority 2022, published 2025):
Several values for one entry are separate records, joined by “and”; a condition that tells them apart may be missing. Equal entries are not always repeated.

How the values were obtained:
A. fumigatus = assay: MIC by microdilution method (resazurin); format: cell-based; conditions: Aspergillus fumigatus
Protocol: Serial double dilution of the CMN was done in the RPMI-MOPS medium. Freshly grown fungal culture from the SD agar plate was resuspended in sterile water and diluted to get 0.1 OD at 600 nm. […] The plates were incubated at 30° C. for 48 h. Plates were checked for growth by visual observation. For Afu, resazurin was added to 44 µM and incubated for 12 h at 37° C. before noting a change in color from blue to pink by live cells. MIC is defined as the minimum concentration at which there is no growth when observed visually.

Cne-WT and Cne-Mut = assay: Resazurin-based HTS growth assay, dose-response IC50; format: cell-based, Cryptococcus neoformans; conditions: 24 h
Protocol: HTS assay: A resazurin-based growth assay was developed for primary screening, employing two strains of Cne, the Cne-WT with natural intein and Cne-Mut, the mutant strain without intein. The assay was first standardized in 96 well formats and later optimized for 384 well plates. The HTS was done at ICCB-Longwood screening facility, Harvard University, Boston, USA. For HTS, the fungal cells were grown in SD broth overnight and diluted in SD broth to an optical density (OD) 0.5 at 600 nm. The cell suspension is further diluted 1:10 in RPMI 1640 media with 0.165 M MOPS, 2% glucose (RPMI-MOPS) so that the final OD will be 0.05. […] The conversion of resazurin to resorufin by live cells were estimated by reading fluorescence at Ex 550 nm and Em 590 nm using a plate reader (EnVision, Perkin Elmer). Additionally, the absorbance was also read at 600 nm using the plate reader (EnVision, Perkin Elmer). […] The ratio of fluorescence reading in Cne-WT and Cne-Mut was used to advance positive compounds.
Concentration series (0.02 to 50 µM) of test compounds and equalizing volume of DMSO were dispensed using a liquid handler (D300 e, Hewlett Packard) to the 384 well plates. Following the addition of Cne cell suspension, the assay plates were incubated for 24 h, and fluorescence readings of resorufin were taken as explained for single concentration screening.

[1] = Cytotoxicity (Cell Counting Kit-8); format: cell-based, murine; conditions: mouse, PMA-differentiated RAW 264.7 macrophage cells, PMA-differentiated RAW 264.7 cells
Protocol: FIGS. 4A, 4B, and 4C show in vitro and in vivo toxicity. […] A549 and RAW 264.7 cells were grown in 96 well plates till 70% confluent. RAW 264.7 cells were differentiated into macrophages using PMA. […] The cell viability was estimated by Cell Counting Kit-8 (GlpBio, CA, USA), and absorbance was read at 450 nm using microplate reader Synergy H1 (BioTek). CC50 was calculated by GraphPad prism. […] Abs: absorbance. […] Bodyweight and other parameters were monitored daily (Table 3).
Cells were seeded in 96 well plates at 1.5×10^4 cells/well of 96 well plates in DMEM media and incubated at a CO2 incubator at 37° C. for 24 h. For differentiation to macrophages, the media was replaced with fresh media containing 100 nM PMA and further incubated for 48 h in a CO2 incubator.

Pharmacokinetics in mice = format: in vivo; conditions: 40 mg/kg BW oral gavage, male C57BL/6 mice, plasma
Protocol: Blood samples were collected at 0, 0.5, 1, 2, 4, 8, 12, 16, 24, and 36 h after oral gavage. […] Other PK parameters are in Table 4. The values represent means±SD. […] On day 0, mice were infected with H99 (10^7 cells/mice) intranasally or mock-infected with PBS. Mice were euthanized on day 5, and lungs were dissected out, homogenized in RPMI-1640-MOPS media, and plated onto Sabouraud dextrose agar plates containing antibiotics. Plates were incubated at 30° C. for 72 h, and colonies were counted. […] VC: Vehicle control, (90% corn oil, 10% DMSO). Dpi: Days post-infection. CFU: Colony-forming units.
Pharmacokinetics in mice: C57BL/6 mice (male, 2-3 months old) were obtained from breeding stocks maintained at the University of Arizona. All mice were housed under conditions of controlled temperature (22° C.) with the on-off light cycle, food, and water provided ad libitum and were fasted for 12 h before administration of the compound. […] Blood samples were collected from the tail vein using heparinized capillary tubes at 0, 0.5, 1, 2, 4, 8, 12, 16, 24, and 36 h after oral gavage. Plasma was separated and stored at −30° C. until use. For extraction of the compound, 5 μl of plasma from each mouse were mixed with 30 μL methanol and 10 μl of internal standard (IS; UAWJ102 50 ng/ml). The mixture was vortexed for 30 seconds and diluted with 760 µL Milli Q water, and loaded onto an ISOLUTER C18 SPE Columns (1 ml/100 mg, Biotage, Salem, NH) pre-conditioned with 1 ml methanol followed by 1 ml water, and the cartridge was then washed with 1 ml water. The analytes were finally eluted from the cartridges with 1 ml methanol containing 5% ammonia solution, dried with nitrogen, and reconstituted in 100 μl methanol.
The analyte was detected and quantified using LC-MS (Agilent 1290 UPLC system Agilent Technologies, Santa Clara, CA) and a Sciex Qtrap6500+ Mass Spectrometer (AB SCIEX, Framingham, MA). Analytes were separated on an EclipsePlus C18 column (2.1×50 mm, 1.8 μm, Agilent) at a temperature of 35° C., with mobile phase A containing 0.1% formic acid (v/v) in water and mobile phase B containing 0.1% formic acid (v/v) in methanol. Elution was at a flow rate of 0.2 mL/min as follows: 10% B (0-0.5 min), 10% B→95% B (0.5-3.5 min), 95% B (3.5-7 min), […] (7-7.1 min), 10% B (7.1-10 min). The MS was operated in the positive ion mode, using electrospray ionization. The ion spray voltage and temperature were set at 5000 V and 500° C., respectively. Curtain gas, ion source gas 1, and ion source gas 2 were set at 25, 50, 50 psi, respectively.

## CNc1ccc2oc(C[C@H]3O[C@@]4(CC[C@H]3C)O[C@H]([C@H](C)C(=O)c3ccc[nH]3)[C@H](C)C[C@H]4C)nc2c1C(=O)O [CMN, calcimycin]
A. fumigatus
  MIC: > 50 µM
Cne-WT and Cne-Mut
  difference in IC50 (Cne-Mut vs Cne-WT): 2.5 fold
[1]
  CC50 at 48 h: 8.6 µM and 4.5 µg/mL
Pharmacokinetics in mice; mean ± S.D. n = 5
  t½: 7.2 h
Pharmacokinetics in mice; male, C57BL/6, mouse, po, 40 mg/kg, mean ± S.D. n = 5
  Tmax: ~10 h
Pharmacokinetics in mice; male, C57BL/6, mouse, po, 40 mg/kg, mean ± S.D. n = 5, read-out: t½ (converted)
  half-life: 456 min
Pharmacokinetics in mice; mouse, mean ± S.D. n = 5
  Cmax: 301 ng/mL
